Assay results as given in patent US20080194491A1, “Methods of Diagnosing, Preventing, and Treating Early Onset of Pulmonary Hypertension” (priority 2002, published 2008).

Key:
mammary epithelial cells = conditions: absence of extracellular matrix; cited from earlier work
lung apoptosis after MCT = experiment: Early caspase inhibition after MCT: lung apoptosis by TUNEL assay; type: in vivo, Rats
Description: The methods set out in Example 3 were employed. In this set of experiments, the inventors tried to establish the effect of apoptosis inhibitors on the early development of the apoptotic pathways. They blocked the caspase activity at a much earlier time point (18 hours post MCT injection and another injection 24 hours after that) using two classes of caspase inhibitors, namely Z-Asp (2.5 mg/Kg) and Z-VAD (1.5 mg/Kg; see FIG. 10 for details). Rats were sacrificed 24, 48 and 72 hours post last dose of inhibitors/DMSO injection and lungs were collected for histology and activity assay. Apoptosis were measured by both TUNEL and caspase activity assays, as previously described.

T-lymphocyte cell line = conditions: cited from earlier work
motoneurons = conditions: in vitro and in vivo; cited from earlier work
[1] = system: Human pulmonary artery epithelial cells (HPAEC); experiment: HPAEC apoptosis induced by serum withdrawal (flow cytometry Annexin V, TUNEL); type: cell-based; conditions: pretreatment 100-200 ng/ml for 2 hours; flow cytometry and TUNEL assay
Description: (§1) The inventors investigated the effect of BMPR2 signaling on pulmonary endothelial cell proliferation and survival. Human pulmonary artery […] cells (HPAEC) were grown in EBM-2 medium supplemented with 2% FBS and growth factors (Clonetics). Apoptosis was induced either by serum withdrawal (see FIG. 17) or exposure of cells to TNFα. […] Apoptosis was evaluated by three independent methods: 1) flow cytometry using Annexin V, a Ca2+ dependent phospholipid-binding protein with affinity for phosphatidylserine (PS; translocation of PS from the inner leaflet of plasma membrane to the outer layer occurs during the early stage of apoptosis), 2) TUNEL assay and, 3) caspase activity assay.

[2] = system: Human pulmonary artery cells (HPAEC); experiment: HPAEC apoptosis induced by TNF (caspase activity assay); type: cell-based; conditions: pretreatment 100-200 ng/ml for 2 hours, TNF 10-20 ng/ml
Description: as §1

CC(C)(C)OC(=O)N[C@@H](CC(=O)OCc1ccccc1)C(=O)CCl [Boc-D-(benzyl) chloromethylketone]
cell death of mammary epithelial cells (mammary epithelial cells): prevented

Z-VAD
inhibition of apoptosis (lung apoptosis after MCT; 48 or 72 hours after the last treatment): less potent
inhibition of apoptosis (lung apoptosis after MCT; 24 hours after the last treatment): most effective

acetyl-DEVD-aldehyde
anti-Fas induced apoptosis (T-lymphocyte cell line): inhibited

acetyl-YVAD-aldehyde
death of motoneurons (motoneurons): blocked

acetyl-YVAD-chloromethylketone
death of motoneurons (motoneurons): blocked

B1: BMP7: bone morphogenetic protein (protein, UniProt P18075 293-431, looked up)
Bone morphogenetic protein 7: STGSKQRSQNRSKTPKNQEALRMANVAENSSSDQRQACKKHELYVSFRDLGWQDWIIAPEGYAAYYCEGECAFPLNSYMNATNHAIVQTLVHFINPETVPKPCCAPTQLNAISVLYFDDSSNVILKKYRNMVVRACGCH
apoptosis induced by serum withdrawal [1]: protected the cells from apoptosis
apoptosis induced by TNF treatment [2]: protect the cells from apoptosis
